In assay [1] the target is T1, PAR4 (Homo sapiens (Human), UniProt Q96RI0). The assay is described as follows: Gamma thrombin induced platelet aggregation assay in PRP (PRP assay). The class given is cell-based. The source says: The compounds of the current invention can be tested in vitro for their ability to inhibit platelet aggregation induced by gamma-thrombin as shown in Example C. Gamma-thrombin, a proteolytic product of alpha-thrombin which no longer interacts with PAR1, selectively cleaves and activates PAR4 (Soslau, G. et al., “Unique pathway of thrombin-induced platelet aggregation mediated by glycoprotein Ib”, J. Biol. Chem., 276:21173-21183 (2001)). Platelet aggregation can be monitored in a 96-well microplate aggregation assay format or using standard platelet aggregometer. The aggregation assay can also be employed to test the selectivity of the compound for inhibiting platelet aggregation induced by PAR4 agonist peptides, PAR1 agonist peptide, ADP, or thromboxane analogue U46619.
T1 sequence (Q96RI0 18-385): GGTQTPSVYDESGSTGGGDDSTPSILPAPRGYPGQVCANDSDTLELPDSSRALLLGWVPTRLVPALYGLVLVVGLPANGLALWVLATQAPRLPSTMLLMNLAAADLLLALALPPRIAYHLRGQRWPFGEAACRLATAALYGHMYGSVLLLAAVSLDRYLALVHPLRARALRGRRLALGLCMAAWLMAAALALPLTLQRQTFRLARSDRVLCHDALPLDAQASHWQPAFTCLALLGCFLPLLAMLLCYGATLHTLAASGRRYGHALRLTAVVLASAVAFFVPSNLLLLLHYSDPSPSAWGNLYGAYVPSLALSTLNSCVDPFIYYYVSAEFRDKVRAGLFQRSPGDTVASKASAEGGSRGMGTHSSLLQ
The platelet rich plasma was isolated by centrifugation at 170 g for 14 minutes.
The ability of the compounds of the current invention to inhibit platelet aggregation induced by gamma-thrombin was tested in a 96-well microplate aggregation assay format. Briefly, PRP or washed platelet suspension (100 μl) was pre-incubated for 5 minutes at room temperature with varying concentrations of compounds. Aggregation was initiated by ˜10-50 nM gamma thrombin (Haematologic Technologies, Essex Junction, Vt.), which was titrated daily to achieve 80% platelet aggregation. Refludan at 1 U/mL (Berlex, Montville, N.J.) was added to the gamma thrombin sample to prevent PAR1 activation induced by residual alpha-thrombin contamination. The plate was then placed into a 37° C. Molecular Devices (Sunnyvale, Calif.) SPECTRAMAX® Plus Plate Reader. […] Data was collected with SOFTMAX® 4.71 software. The plate also included an untreated control sample which served as ODmax, while buffer containing no platelets was the ODmin. Platelet aggregation was determined by subtracting the ODmax from the ODmin for the 100% aggregation value. In experimental samples, the observed transmission was subtracted from the minimum value and then compared to the 100% aggregation value to determine the percentage aggregation. IC50 values are determined using Excel Fit software.
As indicated above, the PRP assay, an in vitro assay, measures the PAR4 antagonist activity of compounds tested as described in Example C.

For assay [2], the target named is T1, PAR4. The assay is described as follows: FLIPR assay in PAR4-expressing HEK293 cells (PAR4 antagonist activity, calcium mobilization). It is filed as cell-based. Particulars: FLIPR assay as described in Example A. The method in brief:
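Calcium-flux antagonist readout: compounds preincubated 30 min at room temperature with PAR4-transfected HEK293 cells in HBSS with 10 mM HEPES (0.67% DMSO final), then agonist peptide added. Agonist activity checked on compound addition; cells carry endogenous PAR1.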
(In general: Calcium assays in cells follow changes in intracellular calcium, usually with a dye or a luminescent sensor.)

As usually defined, the IC50 is the concentration at which inhibition is half-maximal. On to `COc1ccc(Br)c2cc(-c3cn4nc(SC)sc4n3)oc12` [Example 282], for which the IC50 was 5630 nM on PAR4 [1] and 49.6 nM on PAR4 [2].

Take `CSc1nn2cc(-c3nc4c(OC(C)C)cccc4o3)nc2s1` [Example 159]: the IC50 on PAR4 [1] is above 30000 nM; on PAR4 [2], 28.4 nM.

With `CCc1nn2cc(-c3nc4cc(C(C)(C)C)ccc4o3)nc2s1` [Example 57], the figures for the IC50 against PAR4 [1] and on PAR4 [2] were above 30000 nM and 575 nM, respectively.

For the compound `COc1cc(OCc2cccc(OCc3ccccc3C)c2)c2cc(-c3cn4nc(OC)sc4n3)oc2c1` [Example 363], the IC50 against PAR4 [1] stood at 38.3 nM; at PAR4 [2] it was 2.42 nM.

As for `CCOc1nn2cc(-c3cc4c(OCc5cccc(OCc6ccccc6)c5)cc(OC)cc4o3)nc2s1` [Example 348], the results for the IC50 at PAR4 [1] and on PAR4 [2] were 3080 nM and 2.26 nM, respectively.

Turning to `COc1cc(OCc2cccc(OCc3c(F)cccc3Cl)c2)c2cc(-c3cn4nc(OC)sc4n3)oc2c1` [Example 370], the results for the IC50 against PAR4 [1] and on PAR4 [2] were 151 nM and 5.3 nM, respectively.

As for `COc1cc(OCc2cccc(OCc3cccc(C)n3)c2)c2cc(-c3cn4nc(OC)sc4n3)oc2c1` [Example 307], the figures for the IC50 at PAR4 [1] and at PAR4 [2] were 101 nM and 9.23 nM, respectively.

For the compound `COc1nn2cc(-c3cc4c(F)cc(OCc5cccc(OCc6ccccc6)c5)cc4o3)nc2s1` [Example 428], the IC50 against PAR4 [1] turned out to be 73.2 nM; on PAR4 [2] it was 4.81 nM.

For the compound `CCOc1nn2cc(-c3cc4ccccc4o3)nc2s1` [Example 26], the IC50 on PAR4 [1] was above 30000 nM.

At PAR4 [1], `CSc1nn2cc(-c3cc4ccccc4s3)nc2s1` [Example 17] came in with an IC50 above 30000 nM.

As for `CCOc1cc(OCc2cccc(OCc3ccccc3)c2)c2cc(-c3cn4nc(SC)sc4n3)oc2c1` [Example 423], the IC50 on PAR4 [2] came out at 15.1 nM.

Turning to `COc1nn2cc(-c3nc4cc(F)ccc4s3)nc2s1` [Example 194], the IC50 on PAR4 [2] stood at 9.64 nM.

On to `Fc1cccc2cc(-c3cn4nc(Br)sc4n3)oc12` [Example 259], for which, on PAR4 [2], the IC50 is 323 nM.

For the compound `CC(F)c1nn2cc(-c3nc4ccccc4s3)nc2s1` (centres unmarked) [Example 186, 2-(2-(1-Fluoroethyl)imidazo[2,1-b][1,3,4]thiadiazol-6-yl)benzo[d]thiazole], the IC50 on PAR4 [2] was 252 nM.

`COc1cc(Br)cc2cc(-c3cn4nc(SC)sc4n3)oc12` [Example 284]: the IC50 at PAR4 [2] stood at 139 nM.

Regarding `COc1cc(OCc2cccc(OCc3cc(Br)ccc3OC)c2)c2cc(-c3cn4nc(OC)sc4n3)oc2c1` [Example 367], at PAR4 [2], the IC50 was determined as 4.09 nM.

As to `CC(F)(F)c1nn2cc(-c3nc4c(Cl)cccc4s3)nc2s1` [Example 198], the IC50 at PAR4 [2] is 4720 nM.

On to `CSc1nn2cc(-c3nc4c(C)cc(Cl)cc4s3)nc2s1` [Example 192], for which the IC50 on PAR4 [2] was determined as 990 nM.

For the compound `CSc1nn2cc(-c3cc4ccc(C(=O)NCc5ccccc5)cc4o3)nc2s1` [Example 220, N-Benzyl-2-(2-(methylthio)imidazo[2,1-b][1,3,4]thiadiazol-6-yl)benzofuran-6-carboxamide], on PAR4 [2], the IC50 stood at 307 nM.

Take `Cc1cccc2oc(-c3cn4nc(C(C)(F)F)sc4n3)nc12` [Example 122, 2-(2-(1,1-Difluoroethyl)imidazo[2,1-b][1,3,4]thiadiazol-6-yl)-4-methylbenzo[d]oxazole]: the 50% inhibitory concentration (IC50) at PAR4 [2] worked out at 509 nM.

On to `COc1cc(OC)c2cc(-c3cn4nc(SC)sc4n3)oc2c1` [Example 229], for which the IC50 at PAR4 [2] came to 1.22 nM.

Turning to `COc1ccc2cc(-c3cn4nc(C(C)(F)F)sc4n3)oc2c1` [Example 271], on PAR4 [2], the IC50 was found to be 19.4 nM.

As to `CCCCOc1cccc2cc(-c3cn4nc(CC)sc4n3)oc12` [Example 64], the IC50 on PAR4 [2] was 1590 nM.

`COc1cc(OCc2cccc(OCc3ccccc3)c2)c2cc(-c3cn4nc(SC)sc4n3)oc2c1` [Example 345]: on PAR4 [2], the IC50 came to 0.97 nM.

Regarding `COc1nn2cc(-c3cc4ccc(C)c(C)c4o3)nc2s1` [Example 102], the IC50 on PAR4 [2] was 542 nM.

For `COCOc1cccc2oc(-c3cn4nc(SC)sc4n3)cc12` [Example 215, 6-(4-(Methoxymethoxy)benzofuran-2-yl)-2-(methylthio)imidazo[2,1-b][1,3,4]thiadiazole], the IC50 on PAR4 [2] came out at 16.7 nM.

`COc1cc(OCc2cccc(OCc3ccccc3OC(F)(F)F)c2)c2cc(-c3cn4nc(OC)sc4n3)oc2c1` [Example 322]: the IC50 on PAR4 [2] was found to be 9.97 nM.

Regarding `COCCOc1cccc2oc(-c3cn4nc(OC)sc4n3)cc12` [Example 256], the IC50 at PAR4 [2] was found to be 48.4 nM.

For `COc1nn2cc(-c3cc4c(Cl)nccc4o3)nc2s1` [Example 223, 4-Chloro-2-(2-methoxyimidazo[2,1-b][1,3,4]thiadiazol-6-yl)furo[3,2-c]pyridine], the IC50 on PAR4 [2] came out at 21.6 nM.

Consider `Cc1ccc2cc(-c3cn4nc(C(F)(F)Cl)sc4n3)oc2c1` [Example 244], for which the IC50 at PAR4 [2] was determined as 383 nM.

With `CSc1nn2cc(-c3cc4cc(OCc5ccccc5)ccc4o3)nc2s1` [Example 230], the IC50 on PAR4 [2] stood at 2300 nM.

Consider `CSc1nn2cc(-c3cc4c(Cl)nccc4o3)nc2s1` [Example 221, 4-Chloro-2-(2-(methylthio)imidazo[2,1-b][1,3,4]thiadiazol-6-yl)furo[3,2-c]pyridine], for which the IC50 at PAR4 [2] came to 12.5 nM.

As for `COc1cc(OCc2cccc(OCc3ccccc3-c3ccccc3)c2)c2cc(-c3cn4nc(OC)sc4n3)oc2c1` [Example 317], the IC50 on PAR4 [2] was found to be 8.36 nM.

On to `COc1cc(OC)c2cc(-c3cn4nc(Br)sc4n3)oc2c1` [Example 294], for which the IC50 at PAR4 [2] was 19.5 nM.

In the case of `COc1cc(OCc2cccc(OCc3ccccc3Cl)c2)c2cc(-c3cn4nc(OC)sc4n3)oc2c1` [Example 362], the IC50 at PAR4 [2] came to 1.24 nM.

At PAR4 [1], `COc1cc(OCc2cccc(OCc3cccc(F)c3)c2)c2cc(-c3cn4nc(OC)sc4n3)oc2c1` [Example 327] returned an IC50 of 37.9 nM.

For `CSc1nn2cc(-c3nc4cccc(F)c4o3)nc2s1` [Example 143], at PAR4 [2], the IC50 is 48.8 nM.

In the case of `CCc1cc(OCc2cccc(OCc3ccccc3)c2)c2cc(-c3cn4nc(OC)sc4n3)oc2c1` [Example 411, 6-(4-((3-(Benzyloxy)benzyl)oxy)-6-ethylbenzofuran-2-yl)-2-methoxyimidazo[2,1-b][1,3,4]thiadiazole], the IC50 on PAR4 [2] turned out to be 4.53 nM.

With `CSc1nn2cc(-c3nc4c(OC[C@@H]5CCCN5C(=O)[C@H](NC(=O)c5cccs5)c5ccccc5)cccc4o3)nc2s1` [Example 338, N—((R)-2-((S)-2-(((2-(2-(Methylthio)imidazo[2,1-b][1,3,4]thiadiazol-6-yl)benzo[d]oxazol-4-yl)oxy)methyl)pyrrolidin-1-yl)-2-oxo-1-phenylethyl)thiophene-2-carboxamide], at PAR4 [2], the IC50 was 1160 nM.

With `COc1nn2cc(-c3nc4ccc(F)cc4s3)nc2s1` [Example 184, 6-Fluoro-2-(2-methoxyimidazo[2,1-b][1,3,4]thiadiazol-6-yl)benzo[d]thiazole], the IC50 at PAR4 [2] came out at 5.5 nM.

For `Cc1cc(C(F)(F)F)c2cc(-c3cn4nc(Br)sc4n3)oc2n1` [Example 306], the IC50 on PAR4 [2] was 1100 nM.

With `CSc1nn2cc(-c3cc4c(OCc5ccc(F)cc5)cccc4o3)nc2s1` [Example 249], on PAR4 [2], the IC50 was determined as 19.4 nM.

For `CCc1nn2cc(-c3nc4ccc(OCc5ccncc5)cc4o3)nc2s1` [Example 86], the IC50 on PAR4 [2] is 1210 nM.

In the case of `CSc1nn2cc(-c3cc4cc(Cl)c(C)cc4o3)nc2s1` [Example 269], the IC50 on PAR4 [2] came to 74.5 nM.

`CSc1nn2cc(-c3nc4c(OCc5cc(F)cc(F)c5)cccc4o3)nc2s1` [Example 171]: the IC50 on PAR4 [2] stood at 48.1 nM.

`CSc1nn2cc(-c3nc4ccccc4o3)nc2s1` [Example 110, 2-(2-(Methylthio)imidazo[2,1-b][1,3,4]thiadiazol-6-yl)benzo[d]oxazole]: at PAR4 [2], the IC50 is 213 nM.

In the case of `CCCCOc1ccc2nc(-c3cn4nc(CC)sc4n3)oc2c1` [Example 79], the IC50 on PAR4 [2] was found to be 801 nM.

Consider `C#Cc1cc(OCc2cccc(OCc3ccccc3)c2)c2cc(-c3cn4nc(OC)sc4n3)oc2c1` [Example 418], for which the IC50 on PAR4 [2] came to 9.37 nM.

`CSc1nn2cc(-c3nc4c(Cl)cccc4s3)nc2s1` [Example 187]: the IC50 on PAR4 [2] came to 771 nM.

Consider `COc1ccc(Br)c2cc(-c3cn4nc(Br)sc4n3)oc12` [Example 285], for which, at PAR4 [2], the IC50 was found to be 317 nM.

As to `CCc1nn2cc(-c3nc4cc(F)ccc4o3)nc2s1` [Example 49], the IC50 at PAR4 [2] is 361 nM.

On to `COc1cc(OCc2ccccc2)c2nc(-c3cn4nc(OC)sc4n3)oc2c1` [Example 121, 4-(Benzyloxy)-6-methoxy-2-(2-methoxyimidazo[2,1-b][1,3,4]thiadiazol-6-yl)benzo[d]oxazole], for which the IC50 at PAR4 [2] was determined as 13 nM.

Take `CSc1nn2cc(-c3cc4cccc(Cl)c4o3)nc2s1` [Example 23]: the half-maximal inhibitory concentration (IC50) on PAR4 [2] turned out to be 144 nM.

`COc1nn2cc(-c3cc4cc(C)ccc4o3)nc2s1` [Example 95]: the IC50 on PAR4 [2] was determined as 6.89 nM.

The values above are taken from US9862730B2, “Imidazothiadiazole derivatives as protease activated receptor 4 (PAR4) inhibitors for treating platelet aggregation” (BRISTOL-MYERS SQUIBB COMPANY, priority 2012, dated 2018).
